Results published in patent US9120779B2, “Inhibitors of HCV NS5A” (PRESIDIO PHARMACEUTICALS, INC., priority 2008, dated 2015).

These compounds were tested on HCV genotype 1b replicon in Huh 7 cells (assay: HCV replicon assay (luciferase readout, 1b_Huh-Luc/Neo-ET cell line)). Conditions: Hepatitis C virus, Huh-7, 72 h, read-out: Inhibition of HCV genotype 1b, Table 1, 72 h incubation.
Type: cell-based
In short: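 Huh 7 cells carrying a bicistronic genotype 1b luciferase replicon treated with compound in triplicate for 72 h. Replicon level read as luciferase activity (Bright-Glo), expressed as % of control; EC50 from a sigmoidal Hill-slope fit, repeated several times.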

`COC(=O)N[C@@H](C(=O)N1CCC[C@H]1c1ncc(-c2ccc([C@H]3CC[C@H](NC(=O)[C@@H]4CCCN4C(=O)[C@H](NC(=O)N4CCOCC4)c4ccccc4)CC3)cc2)[nH]1)c1ccccc1` [compound 369] and `O=C(N[C@H]1CC[C@@H](c2ccc(-c3cnc([C@@H]4CCCN4C(=O)[C@H](NC(=O)N4CCOCC4)c4ccccc4)[nH]3)cc2)CC1)[C@@H]1CCCN1C(=O)[C@H](NC(=O)N1CCOCC1)c1ccccc1` [compound 355] fall in the same range of EC50: 1 to 9.9 nM for the first, 1 to 9.9 nM for the second.

`COC(=O)N[C@H](C(=O)N1CCC[C@H]1c1ncc(-c2ccc([C@H]3CC[C@H](c4cnc([C@@H]5CCCN5C(=O)[C@@H](NC(=O)OC5CCOCC5)C(C)C)[nH]4)CC3)cc2)[nH]1)C(C)C` [compound 945] was tested, and the EC50 was less than 1 nM.

Same assay, conditions: Hepatitis C virus, Huh-7, 72 h, read-out: Inhibition of HCV genotype 1b, Table 3, 72 h incubation

`O=C(N[C@@H](C(=O)N1CCC[C@H]1c1ncc(-c2cc(F)c(N3CCC(c4cnc([C@@H]5CCCN5C(=O)[C@H](NC(=O)C5CC5)c5ccccc5)[nH]4)CC3)c(F)c2)[nH]1)c1ccccc1)C1CC1` [compound 485] and `COC(=O)N[C@@H](C(=O)N1CCC[C@H]1c1ncc(-c2cc(F)c(N3CCC(c4cnc([C@@H]5CCCN5C(=O)[C@H](NC(=O)OC)c5ccccc5)[nH]4)CC3)c(F)c2)[nH]1)c1ccccc1` [compound 459] cannot be ordered by EC50: less than 1 nM for the first, less than 1 nM for the second.

`COC(=O)N[C@@H](C(=O)N1CCC[C@H]1c1ncc(C2CCN(c3c(F)cc(-c4cnc([C@@H]5CCCN5C(=O)[C@H](NC(=O)OC(C)(C)C)c5ccccc5)[nH]4)cc3F)CC2)[nH]1)c1ccccc1` [compound 479] and `COC(=O)N[C@@H](C(=O)N1CCOC[C@H]1c1ncc(C2CCN(c3c(F)cc(-c4cnc([C@@H]5CCCN5C(=O)[C@H](NC(=O)OC(C)(C)C)c5ccccc5)[nH]4)cc3F)CC2)[nH]1)c1ccccc1` [compound 497] cannot be ordered by EC50: less than 1 nM for the first, less than 1 nM for the second.

Compared with `COC(=O)N[C@@H](C(=O)N1CCC[C@H]1c1ncc(-c2cc(F)c(N3CCC(c4cnc([C@@H]5CCCCN5C(=O)[C@H](NC(=O)OC)C(C)C)[nH]4)CC3)c(F)c2)[nH]1)C(C)C` [compound 504], `COC(=O)N[C@@H](C(=O)N1CCOC[C@H]1c1ncc(-c2cc(F)c(N3CCC(c4cnc([C@@H]5CCCN5C(=O)[C@H](NC(=O)OC)c5ccccc5)[nH]4)CC3)c(F)c2)[nH]1)c1ccccc1` [compound 507] is lower in EC50: greater than 1000 nM for the first, less than 1 nM for the second.

`COC(=O)N[C@@H](C(=O)N1CCC[C@H]1c1ncc(-c2cc(F)c(N3CCC(c4cnc([C@@H]5CCCN5C(=O)[C@@H](c5ccccc5)N5CCOCC5)[nH]4)CC3)c(F)c2)[nH]1)c1ccccc1` [compound 468] showed an EC50 of less than 1 nM.

Same assay, conditions: Hepatitis C virus, Huh-7, 72 h, read-out: Inhibition of HCV genotype 1b, Table 4, 72 h incubation

`COC(=O)N[C@H](C(=O)N1CCC[C@H]1c1nc2ccc(-c3ccc(-c4ccc5nc([C@H](C)NC(=O)[C@H](C(C)C)N(C)C)[nH]c5c4)cc3)cc2[nH]1)C(C)C` [compound 935] and `COC(=O)N[C@H](C(=O)N1CCC[C@H]1c1nc2ccc(-c3ccc(-c4ccc5nc([C@@H]6CCCN6C(=O)[C@@H](NC(=O)OC)C(C)C)[nH]c5c4)nc3)cc2[nH]1)C(C)C` [compound 556] cannot be ordered by EC50: less than 1 nM for the first, less than 1 nM for the second.

For `CC(C)[C@H](NC(=O)N1CCCC1)C(=O)N1CCC[C@H]1c1nc2ccc(-c3ccc(-c4ccc5nc([C@@H]6CCCN6C(=O)[C@@H](NC(=O)N6CCCC6)C(C)C)[nH]c5c4)cc3)cc2[nH]1` [compound 552], the EC50 was greater than 1000 nM.

Same assay, conditions: Hepatitis C virus, Huh-7, 72 h, read-out: Inhibition of HCV genotype 1b, Table 5, 72 h incubation

`COC(=O)N[C@H](C(=O)N1CCC[C@H]1c1ncc(C23CCC(c4ccc(-c5cnc([C@@H]6CCCN6C(=O)[C@H](NC(=O)OC)c6ccccc6)[nH]5)cc4)(CC2)CC3)[nH]1)C(C)C` [compound 617] and `COC(=O)N[C@@H](C(=O)N1CCC[C@H]1c1ncc(-c2ccc(C34CCC(c5cnc([C@@H]6CCCN6C(=O)[C@H](NC(=O)OC)C(C)C)[nH]5)(CC3)CC4)cc2)[nH]1)c1ccccc1` [compound 616] cannot be ordered by EC50: less than 1 nM for the first, less than 1 nM for the second.

`CCNC(=O)N[C@@H](C(=O)N1CCC[C@H]1c1ncc(-c2ccc(C34CCC(c5cnc([C@@H]6CCCN6C(=O)[C@@H](NC(=O)OC)C(C)C)[nH]5)(CC3)CC4)cc2)[nH]1)c1ccccc1` [compound 2103] and `COC(=O)N[C@H](C(=O)N1CCC[C@H]1c1ncc(-c2ccc(C34CCC(c5cnc([C@@H]6CCCN6C(=O)[C@@H](c6ccccc6)N(C)C)[nH]5)(CC3)CC4)cc2)[nH]1)C(C)C` [compound 2051] cannot be ordered by EC50: less than 1 nM for the first, less than 1 nM for the second.

`COC(=O)N[C@H](C)C(=O)N1CCC[C@H]1c1ncc(-c2ccc(C34CCC(c5cnc([C@@H]6CCCN6C(=O)[C@@H](C)NC(=O)OC)[nH]5)(CC3)CC4)cc2)[nH]1` [compound 917] and `COC(=O)N[C@H](C(=O)N1CCC[C@H]1c1ncc(C23CCC(c4ccc(-c5cnc([C@@H]6CCCN6C(=O)[C@H](C(C)C)N(C)C(=O)OC)[nH]5)cc4)(CC2)CC3)[nH]1)C(C)C` [compound 912] cannot be ordered by EC50: less than 1 nM for the first, less than 1 nM for the second.

`COC(=O)N[C@H](C(=O)N1CCC[C@H]1c1ncc(-c2ccc(C34CCC(c5cnc([C@@H]6CCCN6C(=O)[C@H](C(C)C)N(C)C)[nH]5)(CC3)CC4)cc2)[nH]1)C(C)C` [compound 2056] and `CCNC(=O)N[C@H](C(=O)N1CCC[C@H]1c1ncc(C23CCC(c4ccc(-c5cnc([C@@H]6CCCN6C(=O)[C@@H](NC(=O)OC)C(C)C)[nH]5)cc4)(CC2)CC3)[nH]1)C(C)C` [compound 2100] cannot be ordered by EC50: less than 1 nM for the first, less than 1 nM for the second.

Compared with `COC(=O)N[C@H](C(=O)N1CCC[C@H]1c1ncc(-c2ccc(C34CCC(c5cnc([C@@H]6CCCN6C(=O)[C@@H](NC6CCOCC6)C(C)C)[nH]5)(CC3)CC4)cc2)[nH]1)C(C)C` [compound 2054], `COC(=O)N[C@H](C(=O)N1CCC[C@H]1c1ncc(-c2ccc(C34CCC(c5cnc([C@@H]6CCCN6C(=O)[C@@H](NC(=O)N6CCC(O)CC6)C(C)C)[nH]5)(CC3)CC4)cc2)[nH]1)C(C)C` [compound 2059] is lower in EC50: 1 to 9.9 nM for the first, less than 1 nM for the second.

`COC(=O)N[C@H](C(=O)N1CCC[C@H]1c1ncc(-c2ccc(C34CCC(c5cnc([C@H](C)NC(=O)[C@H](NC(=O)OC)c6ccccc6)[nH]5)(CC3)CC4)cc2)[nH]1)C(C)C` [compound 2104] and `COC(=O)N[C@H](C(=O)N1CCC[C@H]1c1ncc(-c2ccc(C34CCC(c5cnc([C@@H]6CCCN6C(=O)[C@@H](c6ccccc6)N6CCCCC6)[nH]5)(CC3)CC4)cc2)[nH]1)C(C)C` [compound 632] cannot be ordered by EC50: less than 1 nM for the first, less than 1 nM for the second.

First: COC(=O)N[C@H](C(=O)N1CCC[C@H]1c1ncc(-c2ccc(C34CCC(c5cnc([C@@H]6CCCN6C(=O)[C@H](C(C)C)N6CCC(O)CC6)[nH]5)(CC3)CC4)cc2)[nH]1)C(C)C [compound 2058]
Second: CC(C)[C@H](NC(=O)N1CCCCC1)C(=O)N1CCC[C@H]1c1ncc(-c2ccc(C34CCC(c5cnc([C@@H]6CCCN6C(=O)[C@@H](NC(=O)N6CCCCC6)C(C)C)[nH]5)(CC3)CC4)cc2)[nH]1 [compound 639]
The EC50 of the first is lower: less than 1 nM for the first, greater than 1000 nM for the second.

`COC(=O)N[C@@H](C(=O)N1CCC[C@H]1c1ncc(C23CCC(c4ccc(-c5cnc([C@@H]6CCCN6C(=O)[C@@H](c6ccccc6)N6CCCC6)[nH]5)cc4)(CC2)CC3)[nH]1)c1ccccc1` [compound 623] and `COC(=O)N[C@@H](C(=O)N1CCC[C@H]1c1ncc(C23CCC(c4ccc(-c5cnc([C@@H]6CCCN6C(=O)[C@H](NC(=O)C6CC6)c6ccccc6)[nH]5)cc4)(CC2)CC3)[nH]1)c1ccccc1` [compound 625] cannot be ordered by EC50: less than 1 nM for the first, less than 1 nM for the second.

`CCC(CC)[C@H](NC(=O)OC)C(=O)N1CCC[C@H]1c1ncc(-c2ccc(C34CCC(c5cnc([C@@H]6CCCN6C(=O)[C@@H](NC(=O)OC)C(CC)CC)[nH]5)(CC3)CC4)cc2)[nH]1` [compound 910] showed an EC50 of less than 1 nM.
